According to patent US10829481B2, “Benzimidazole derivatives as modulators of ROR-gamma” (Vitae Pharmaceuticals, LLC, priority 2016, dated 2020):

Legend:
[1] = biological target: full-length RORγt in Jurkat cells (Homo sapiens (Human), UniProt P51449); experiment: RORγt 5×RORE Assay in Jurkat Cells (Assay 2); assay type: cell-based; conditions: 5×RORE Nanoluc luciferase reporter
Description: RORγt 5×RORE Assay in Jurkat Cells (Assay 2)
Compounds described herein were tested for RORγ inverse agonist activity in a cell-based, transcriptional activity assay. Secreted Nanoluc® luciferase was used as a reporter for transcriptional activity of the full-length RORγt in Jurkat cells (ATCC, Cat. #TIB-152). […] (Promega, Cat. #N1021) using KpnI and HindIII restriction sites. […] After 5-6 hrs of incubation at 37° C./5% CO2, the cells were collected, resuspended in phenol-red free RPMI media containing 10% (v/v) delipidated FBS (Hyclone, Cat. #SH30855.03) and dispensed into 96-well clear bottom tissue culture plates (CoStar, Cat. #3603), at 80,000 cells per well. Tested compounds were added to the cells in the same media (final concentration of DMSO was 0.1% (v/v)), and the plates were incubated at 37° C./5% CO2 for 16-18 hrs. Luciferase activity in the conditioned supernatants was determined with NanoGlo® assay reagents (Promega, Cat. #N1130).

[2] = biological target: recombinant RORγ Ligand Binding Domain (LBD) protein (Homo sapiens (Human), UniProt P51449); experiment: Radio-Ligand RORγ Binding Assay (Assay 1); conditions: competition with 25-hydroxy [26,27-3H]-cholesterol, SPA
Description: Radio-Ligand RORγ Binding Assay (Assay 1)
Compounds described herein were tested for ability to bind to RORγ in a cell-free competition assay with commercially available radio-ligand (RL), 25-hydroxy [26,27-^3H]-cholesterol (PerkinElmer, Cat. #NET674250UC), for a ligand binding site on a recombinant RORγ Ligand Binding Domain (LBD) protein expressed as a 6×His-Glutathione-S-Transferase (GST) fusion. The assay was performed in 96-well SPA plates (PerkinElmer, Cat. #1450-401) in 50 mM HEPES buffer, pH 7.4, containing 150 mM NaCl, 5 mM MgCl2, 10% (v/v) glycerol, 2 mM CHAPS, 0.5 mM β-octylglucopyranoside and 5 mM DTT. Tested compounds were dissolved in DMSO, and semi-log (3.162×) serial dilutions of the compounds were prepared in the same solvent. Two μL of the DMSO solutions were mixed with 28 μL of 8.6 nM 25-hydroxy [26,27-^3H]-cholesterol and 50 μL of 24 nM RORγ LBD. The plate was shaken at 700 rpm for 20 min and incubated for 10 min at rt, after which 40 μL of poly-Lys YSi SPA beads (PerkinElmer, Cat. #RPNQ0010) were added to achieve […] of the beads per well. The plate was incubated on an orbital shaker for 20 min and then for 10 min without agitation at rt. SPA signal for tritium beta radiation was registered on PerkinElmer Microbeta plate reader. […] The percent inhibition vs. concentration data were fit into a four-parameter model, and IC50 values were calculated from the fit as the concentrations corresponding to the inflection points on the dose-response curves. Inhibitory constants (Ki) were calculated using the following equation, where [RL] is the concentration in the assay and KD is a dissociation constant of 25-hydroxy [26,27-^3H]-cholesterol: […]

Sequence of recombinant RORγ Ligand Binding Domain (LBD) protein (P51449 269-508): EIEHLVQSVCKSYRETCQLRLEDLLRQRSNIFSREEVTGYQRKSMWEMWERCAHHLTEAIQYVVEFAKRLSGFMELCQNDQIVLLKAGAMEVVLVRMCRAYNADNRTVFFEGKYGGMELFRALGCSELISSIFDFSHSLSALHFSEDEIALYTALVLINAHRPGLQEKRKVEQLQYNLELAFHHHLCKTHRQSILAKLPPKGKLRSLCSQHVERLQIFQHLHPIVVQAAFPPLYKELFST
Sequence of full-length RORγt in Jurkat cells (P51449 other isoform, or with tags, fused parts or gaps): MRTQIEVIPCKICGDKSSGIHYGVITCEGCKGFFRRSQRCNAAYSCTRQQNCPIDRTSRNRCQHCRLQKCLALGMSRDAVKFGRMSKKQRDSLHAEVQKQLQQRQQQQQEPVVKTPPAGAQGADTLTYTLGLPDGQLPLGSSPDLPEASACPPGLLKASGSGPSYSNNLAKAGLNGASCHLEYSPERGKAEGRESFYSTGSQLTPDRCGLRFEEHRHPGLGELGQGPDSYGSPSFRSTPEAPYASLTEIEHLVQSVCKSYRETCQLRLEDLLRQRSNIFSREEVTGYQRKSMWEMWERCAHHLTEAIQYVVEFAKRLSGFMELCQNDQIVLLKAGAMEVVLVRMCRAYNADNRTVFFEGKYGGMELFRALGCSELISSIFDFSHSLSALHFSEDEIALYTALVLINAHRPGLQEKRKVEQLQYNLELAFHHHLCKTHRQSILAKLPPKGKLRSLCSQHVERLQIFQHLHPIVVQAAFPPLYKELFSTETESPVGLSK

| Compound | IC50 [1] | Ki [2] |
| --- | --- | --- |
| CCS(=O)(=O)c1ccc(CNC(=O)c2ccc3c(c2)nc([C@H](C)OC)n3Cc2cccc3c2OC(F)(F)O3)cc1 (mixture of isomers) [I-49.1, (S)-1-((2,2-difluorobenzo[d][1,3]dioxol-4-yl)methyl)-N-(4-(ethylsulfonyl)benzyl)-2-(1-methoxyethyl)-1H-benzo[d]imidazole-5-carboxamide and (R)-1-((2,2-difluorobenzo[d][1,3]dioxol-4-yl)methyl)-N-(4-(ethylsulfonyl)benzyl)-2-(1-methoxyethyl)-1H-benzo[d]imidazole-5-carboxamide] | < 100 nM | < 100 nM |
| CCS(=O)(=O)c1ccc(CNC(=O)c2ccc3c(c2)nc([C@@H](C)OC)n3Cc2cccc3c2OC(F)(F)O3)cc1 (mixture of isomers) [I-49.2, (S)-1-((2,2-difluorobenzo[d][1,3]dioxol-4-yl)methyl)-N-(4-(ethylsulfonyl)benzyl)-2-(1-methoxyethyl)-1H-benzo[d]imidazole-5-carboxamide and (R)-1-((2,2-difluorobenzo[d][1,3]dioxol-4-yl)methyl)-N-(4-(ethylsulfonyl)benzyl)-2-(1-methoxyethyl)-1H-benzo[d]imidazole-5-carboxamide] | < 100 nM | < 100 nM |
| CS(=O)(=O)N1CCC([C@@H](CO)NC(=O)c2ccc3c(c2)nc(C(F)(F)F)n3Cc2cccc3c2OC(F)(F)O3)CC1 (mixture of isomers) [I-164.1, (R)-1-((2,2-difluorobenzo[d][1,3]dioxol-4-yl)methyl)-N-(2-hydroxy-1-(1-(methylsulfonyl)piperidin-4-yl)ethyl)-2-(trifluoromethyl)-1H-benzo[d]imidazole-5-carboxamide and (S)-1-((2,2-difluorobenzo[d][1,3]dioxol-4-yl)methyl)-N-(2-hydroxy-1-(1-(methylsulfonyl)piperidin-4-yl)ethyl)-2-(trifluoromethyl)-1H-benzo[d]imidazole-5-carboxamide] | < 100 nM | < 100 nM |
| CS(=O)(=O)N1CCC([C@H](CO)NC(=O)c2ccc3c(c2)nc(C(F)(F)F)n3Cc2cccc3c2OC(F)(F)O3)CC1 (mixture of isomers) [I-164.2, (R)-1-((2,2-difluorobenzo[d][1,3]dioxol-4-yl)methyl)-N-(2-hydroxy-1-(1-(methylsulfonyl)piperidin-4-yl)ethyl)-2-(trifluoromethyl)-1H-benzo[d]imidazole-5-carboxamide and (S)-1-((2,2-difluorobenzo[d][1,3]dioxol-4-yl)methyl)-N-(2-hydroxy-1-(1-(methylsulfonyl)piperidin-4-yl)ethyl)-2-(trifluoromethyl)-1H-benzo[d]imidazole-5-carboxamide] | < 100 nM | < 100 nM |
| CCS(=O)(=O)c1ccc([C@H](O)C(=O)Nc2ccc3c(c2)nc(C(F)(F)F)n3Cc2cccc3c2OC(F)(F)O3)cc1 (mixture of isomers) [I-170.1, (S)-N-(1-((2,2-difluorobenzo[d][1,3]dioxol-4-yl)methyl)-2-(trifluoromethyl)-1H-benzo[d]imidazol-5-yl)-2-(4-(ethylsulfonyl)phenyl)-2-hydroxyacetamide and (R)-N-(1-((2,2-difluorobenzo[d][1,3]dioxol-4-yl)methyl)-2-(trifluoromethyl)-1H-benzo[d]imidazol-5-yl)-2-(4-(ethylsulfonyl)phenyl)-2-hydroxyacetamide] | < 100 nM | < 100 nM |
| CCS(=O)(=O)c1ccc([C@@H](O)C(=O)Nc2ccc3c(c2)nc(C(F)(F)F)n3Cc2cccc3c2OC(F)(F)O3)cc1 (mixture of isomers) [I-170.2, (S)-N-(1-((2,2-difluorobenzo[d][1,3]dioxol-4-yl)methyl)-2-(trifluoromethyl)-1H-benzo[d]imidazol-5-yl)-2-(4-(ethylsulfonyl)phenyl)-2-hydroxyacetamide and (R)-N-(1-((2,2-difluorobenzo[d][1,3]dioxol-4-yl)methyl)-2-(trifluoromethyl)-1H-benzo[d]imidazol-5-yl)-2-(4-(ethylsulfonyl)phenyl)-2-hydroxyacetamide] | < 100 nM | < 100 nM |
